According to patent publication US20220387608A1, “ADRENOMEDULLIN-ANALOGUES FOR LONG-TERM STABILIZATION AND THEIR USE” (Bayer Aktiengesellschaft, priority 2019, published 2022):
Positions of bridges follow the written chain, without caps; N, C: chain ends. Non-standard residues stand in square brackets, D forms with d. Residues, ends and D or L forms follow the SMILES beside them. PEG4 = NCCOCCOCCOCCOCCC(=O)O; AEEEA = NCCOCCOCCOCC(=O)O; PEG3 = NCCOCCOCCOCCC(=O)O

Molecular target: T1, AM1R (Homo sapiens, UniProt O60895+Q16602)
T1 construct: EYFP; ECFP; expressed in transfected cells; host or cells: HEK-293 (transient co-transfection)
Test: Activity determination in vitro: cAMP/CRE-luciferase reporter assay in HEK293 cells transiently co-transfected with CLR and RAMP2
Type: cell-based
Settings: for Emax: HEK293, normalized to [G14]ADM(14-52); for EC50: HEK293 with CLR/RAMP2, CRE-luciferase, 3 h stimulation
Experimental: (1a) Activity Determination of Adrenomedullin Analogues in vitro
Cell Culture HEK-293 cells (human embryonic kidney cells) were cultured in Ham's F-12/DMEM (1/1; v/v) containing 15% FCS under humidified atmosphere at 37° C. and 5% CO2 in 75 cm^2 cell culture flasks.
Cells were cultured in 75 cm^2 flasks to 70-80% confluency. 45 μl Metafectene® Pro was diluted in 900 ρl Ham's F-12/DMEM (1/1; v/v) and incubated for 20 min at room temperature. 9 μg plasmid containing DNA of CLR fused to EYFP and 3 μg plasmid containing DNA of RAMP2 fused to ECFP were dissolved in 900 μl Ham's F-12/DMEM (1/1; v/v). The plasmid solution was mixed with the Metafectene® Pro solution and incubated for 25 min at room temperature. Medium was removed from the cells and replaced by 6 m1 Ham's F-12/DMEM (1/1; v/v) containing 15% FCS. After addition of transfection solution the cells were incubated for 3 h under humidified atmosphere at 37° C. and 5% CO2. For the second transfection 45 μl Metafectene® Pro was diluted in 900 μl Ham's F-12/DMEM (1/1; v/v) and incubated for 20 min at room temperature. 12 μg of pGL4.29[Luc2P/CRE/Hygro] plasmid containing DNA for the luciferase reporter gene luc2P (with CRE promotor region) were dissolved in 900 μl Ham's F-12/DMEM (1/1; v/v). The plasmid solution was mixed with the Metafectene® Pro solution and incubated for 25 min at room temperature. Medium was removed from the cells and replaced by 6 m1 Ham's F-12/DMEM (1/1; v/v) containing 15% FCS. After addition of transfection solution, the cells were incubated under humidified atmosphere at 37° C. and 5% CO2 over night.
For coating of 96-well-plates, 50 μl of a poly-D-lysine solution in DPBS (0.1 mg/ml) were pipetted in each well and incubated for 40 min. After removal of poly-D-lysine, each well was washed with 50 μl DPBS. Transiently transfected cells were detached from the cell culture flask by removal of the medium, 2-fold washing with 5 m1 DPBS and resuspending in 40 m1 Ham's F-12/DMEM (1/1; v/v) containing 15% FCS. 90,000 to 120,000 cells in 150 μl Ham's F-12/DMEM (1/1; v/v) containing 15% FCS were seeded per well and the plates were incubated under humidified atmosphere at 37° C. and 5% CO2 over night.
For each ligand, a serial dilution with eight different concentrations was prepared using Ham's F^12/DMEM (1/1; v/v). Before stimulation, the medium on the cells was replaced by 100 μl Ham's F^12/DMEM (1/1; v/v) and the plates were incubated for 1 h under humidified atmosphere at 37° C. and 5% CO2. For stimulation, the medium was removed and the cells were incubated for 3 h in 80 μl of ligand-solution under humidified atmosphere at 37° C. and 5% CO2. In addition 80 μl of a 5 μM forskolin solution in Ham's F-12/DMEM (1/1; v/v) was used as a positive control and 80 μl of Ham's F-12/DMEM (1/1; v/v) as a negative control. Each concentration and the controls were tested as triplicates.
After 3 h of stimulation, the solutions were removed and the cells were washed with 50 μl of Ham's F-12/DMEM (1/1; v/v) perwell. After 10 m incubation in 30 μl of Ham's F-12/DMEM (1/1; v/v) at room temperature, 30 μl of luciferase-solution (ONE-Glo™ Luciferase Assay System) was added and the luminescence was directly measured using an Infinite M200 (Tecan).
Data analysis of the luminescence measurement was carried out with GraphPad Prism 5. Therefore, the measured luminescence values of each plate were first corrected on the base of the respective average of forskolin stimulation. Afterwards they were normalized to [G14]ADM(14-52), which was used as standard peptide in every assay. After correction and normalization, data was analyzed using non-linear regression giving dose-response curves for each tested ligand.

T1 sequence (Q16602 23-461): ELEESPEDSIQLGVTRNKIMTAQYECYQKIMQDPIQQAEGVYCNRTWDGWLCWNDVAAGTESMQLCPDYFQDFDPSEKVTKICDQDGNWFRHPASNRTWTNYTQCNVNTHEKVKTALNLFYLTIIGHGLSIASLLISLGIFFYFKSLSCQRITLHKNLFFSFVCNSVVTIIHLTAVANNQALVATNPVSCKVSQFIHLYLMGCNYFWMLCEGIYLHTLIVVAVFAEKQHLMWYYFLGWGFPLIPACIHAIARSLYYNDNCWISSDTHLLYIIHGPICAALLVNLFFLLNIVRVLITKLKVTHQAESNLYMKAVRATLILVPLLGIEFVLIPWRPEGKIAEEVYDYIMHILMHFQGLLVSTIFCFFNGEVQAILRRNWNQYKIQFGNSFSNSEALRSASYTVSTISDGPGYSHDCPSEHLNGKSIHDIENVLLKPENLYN
T1 sequence (O60895 43-175): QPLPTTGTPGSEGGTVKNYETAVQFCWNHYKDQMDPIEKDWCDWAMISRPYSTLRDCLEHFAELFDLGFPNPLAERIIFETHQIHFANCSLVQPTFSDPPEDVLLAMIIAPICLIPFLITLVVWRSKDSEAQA

Row | Emax | EC50 | SMILES
1 | 95 ± 7% | 21 nM | CC[C@H](C)[C@H](NC(=O)[C@H](CCC(N)=O)NC(=O)[C@H](Cc1c[nH]cn1)NC(=O)[C@H](C)NC(=O)[C@H](CC(C)C)NC(=O)[C@H](CCCCN)NC(=O)[C@H](CCC(N)=O)NC(=O)[C@@H](NC(=O)[C@@H](NC(=O)[C@@H]1CSSC[C@H](NC(=O)CNC(=O)CN)C(=O)N[C@@H](CCCNC(=N)N)C(=O)N[C@@H](Cc2ccccc2)C(=O)NCC(=O)N[C@@H]([C@@H](C)O)C(=O)N1)[C@@H](C)O)C(C)C)C(=O)N[C@@H](Cc1ccc(O)cc1)C(=O)N[C@@H](CCC(N)=O)C(=O)N[C@@H](Cc1ccccc1)C(=O)N[C@H](C(=O)NCCOCCOCCOCC(=O)N[C@@H](CC(=O)O)C(=O)N[C@@H](CC(N)=O)C(=O)N[C@H](C(=O)N[C@@H](C)C(=O)N1CCC[C@H]1C(=O)N[C@@H](CCCNC(=N)N)C(=O)N[C@@H](CO)C(=O)N[C@@H](CCCCN)C(=O)N[C@H](C(=O)N[C@@H](CO)C(=O)N1CCC[C@H]1C(=O)N[C@@H](CCC(N)=O)C(=O)NCC(=O)N[C@@H](Cc1ccc(O)cc1)C(N)=O)[C@@H](C)CC)C(C)C)[C@@H](C)O [Example 6, ((4R,7S,13S,16S,19R)-19-(2-(2-aminoacetamido)acetamido)-13-benzyl-16-(3-guanidinopropyl)-7-((R)-1-hydroxyethyl)-6,9,12,15,18-pentaoxo-1,2-dithia-5,8,11,14,17-pentaazacycloicosane-4-carbonyl)-L-threonyl-ADM(23-34)-(2-(2-(2-(2-(k2-azaneyl)ethoxy)ethoxy)ethoxy)acetyl)-L-aspartyl-ADM(40-52)] (H-GGCRFGTCTVQKLAHQIYQFT[AEEEA]DNVAPRSKISPQGY-NH2; disulfide 3-8)
2 | 103 ± 4% | 13 nM | CC[C@H](C)[C@H](NC(=O)[C@H](CCC(N)=O)NC(=O)[C@H](Cc1c[nH]cn1)NC(=O)[C@H](C)NC(=O)[C@H](CC(C)C)NC(=O)[C@H](CCCCN)NC(=O)[C@H](CCC(N)=O)NC(=O)[C@@H](NC(=O)[C@@H](NC(=O)[C@@H]1CSSC[C@H](NC(=O)CNC(=O)CN)C(=O)N[C@@H](CCCNC(=N)N)C(=O)N[C@@H](Cc2ccccc2)C(=O)NCC(=O)N[C@@H]([C@@H](C)O)C(=O)N1)[C@@H](C)O)C(C)C)C(=O)N[C@@H](Cc1ccc(O)cc1)C(=O)N[C@@H](CCC(N)=O)C(=O)N[C@@H](Cc1ccccc1)C(=O)N[C@H](C(=O)NCCOCCOCCOCCC(=O)N[C@@H](CC(=O)O)C(=O)N[C@@H](CC(N)=O)C(=O)N[C@H](C(=O)N[C@@H](C)C(=O)N1CCC[C@H]1C(=O)N[C@@H](CCCNC(=N)N)C(=O)N[C@@H](CO)C(=O)N[C@@H](CCCCN)C(=O)N[C@H](C(=O)N[C@@H](CO)C(=O)N1CCC[C@H]1C(=O)N[C@@H](CCC(N)=O)C(=O)NCC(=O)N[C@@H](Cc1ccc(O)cc1)C(N)=O)[C@@H](C)CC)C(C)C)[C@@H](C)O [Example 7, ((4R,7S,13S,16S,19R)-19-(2-(2-aminoacetamido)acetamido)-13-benzyl-16-(3-guanidinopropyl)-7-((R)-1-hydroxyethyl)-6,9,12,15,18-pentaoxo-1,2-dithia-5,8,11,14,17-pentaazacycloicosane-4-carbonyl)-L-threonyl-ADM(23-34)-(3-(2-(2-(2-(λ^2-azaneyl)ethoxy)ethoxy)ethoxy)propanoyl)-L-aspartyl-ADM(40-52)] (H-GGCRFGTCTVQKLAHQIYQFT[PEG3]DNVAPRSKISPQGY-NH2; disulfide 3-8)
3 | 95 ± 3% | 16 nM | CC[C@H](C)[C@H](NC(=O)[C@H](CCC(N)=O)NC(=O)[C@H](Cc1c[nH]cn1)NC(=O)[C@H](C)NC(=O)[C@H](CC(C)C)NC(=O)[C@H](CCCCN)NC(=O)[C@H](CCC(N)=O)NC(=O)[C@@H](NC(=O)[C@@H](NC(=O)[C@@H]1CSSC[C@H](NC(=O)CNC(=O)CN)C(=O)N[C@@H](CCCNC(=N)N)C(=O)N[C@@H](Cc2ccccc2)C(=O)NCC(=O)N[C@@H]([C@@H](C)O)C(=O)N1)[C@@H](C)O)C(C)C)C(=O)N[C@@H](Cc1ccc(O)cc1)C(=O)N[C@@H](CCC(N)=O)C(=O)N[C@@H](Cc1ccccc1)C(=O)N[C@H](C(=O)NCCOCCOCCOCCOCCC(=O)N[C@@H](CC(N)=O)C(=O)N[C@H](C(=O)N[C@@H](C)C(=O)N1CCC[C@H]1C(=O)N[C@@H](CCCNC(=N)N)C(=O)N[C@@H](CO)C(=O)N[C@@H](CCCCN)C(=O)N[C@H](C(=O)N[C@@H](CO)C(=O)N1CCC[C@H]1C(=O)N[C@@H](CCC(N)=O)C(=O)NCC(=O)N[C@@H](Cc1ccc(O)cc1)C(N)=O)[C@@H](C)CC)C(C)C)[C@@H](C)O [Example 8, ((4R,7S,13S,16S,19R)-19-(2-(2-aminoacetamido)acetamido)-13-benzyl-16-(3-guanidinopropyl)-7-((R)-1-hydroxyethyl)-6,9,12,15,18-pentaoxo-1,2-dithia-5,8,11,14,17-pentaazacycloicosane-4-carbonyl)-L-threonyl-ADM(23-34)-(1-(λ^2-azaneyl)-3,6,9,12-tetraoxapentadecan-15-oyl)-L-asparagyl-ADM(41-52)] (H-GGCRFGTCTVQKLAHQIYQFT[PEG4]NVAPRSKISPQGY-NH2; disulfide 3-8)
4 | 87 ± 4% | 49 nM | CC[C@H](C)[C@H](NC(=O)[C@H](CCC(N)=O)NC(=O)[C@H](Cc1c[nH]cn1)NC(=O)[C@H](C)NC(=O)[C@H](CC(C)C)NC(=O)[C@H](CCCCN)NC(=O)[C@H](CCC(N)=O)NC(=O)[C@@H](NC(=O)[C@@H](NC(=O)[C@@H]1CSSC[C@H](NC(=O)CNC(=O)CN)C(=O)N[C@@H](CCCNC(=N)N)C(=O)N[C@@H](Cc2ccccc2)C(=O)NCC(=O)N[C@@H]([C@@H](C)O)C(=O)N1)[C@@H](C)O)C(C)C)C(=O)N[C@@H](Cc1ccc(O)cc1)C(=O)N[C@@H](CCC(N)=O)C(=O)N[C@@H](Cc1ccccc1)C(=O)N[C@H](C(=O)N[C@@H](CC(=O)O)C(=O)NCCOCCOCCOCCC(=O)N[C@@H](CC(N)=O)C(=O)N[C@H](C(=O)N[C@@H](C)C(=O)N1CCC[C@H]1C(=O)N[C@@H](CCCNC(=N)N)C(=O)N[C@@H](CO)C(=O)N[C@@H](CCCCN)C(=O)N[C@H](C(=O)N[C@@H](CO)C(=O)N1CCC[C@H]1C(=O)N[C@@H](CCC(N)=O)C(=O)NCC(=O)N[C@@H](Cc1ccc(O)cc1)C(N)=O)[C@@H](C)CC)C(C)C)[C@@H](C)O [Example 9, ((4R,7S,13S,16S,19R)-19-(2-(2-aminoacetamido)acetamido)-13-benzyl-16-(3-guanidinopropyl)-7-((R)-1-hydroxyethyl)-6,9,12,15,18-pentaoxo-1,2-dithia-5,8,11,14,17-pentaazacycloicosane-4-carbonyl)-L-threonyl-ADM(23-35)-(3-(2-(2-(2-(λ^2-azaneyl)ethoxy)ethoxy)ethoxy)propanoyl)-L-asparagyl-ADM(41-52)] (H-GGCRFGTCTVQKLAHQIYQFTD[PEG3]NVAPRSKISPQGY-NH2; disulfide 3-8)
